Measured values published in publication PMC9060900 (RSC Advances, 2019).

Molecular target: T1, TMV coat protein (TMV-CP; TMV CP) (Tobacco mosaic virus (vulgare), UniProt P69687)
T1 sequence (P69687 2-159): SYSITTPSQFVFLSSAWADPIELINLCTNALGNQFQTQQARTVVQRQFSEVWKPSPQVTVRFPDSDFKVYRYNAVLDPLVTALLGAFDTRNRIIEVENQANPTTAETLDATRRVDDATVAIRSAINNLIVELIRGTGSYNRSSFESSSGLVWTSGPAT
Test: microscale thermophoresis
Type: binding

For `Cc1csc(/C=C/C(=O)c2ccccc2OCCSc2nnc(-c3ccccc3)c(-c3ccccc3)n2)n1` [4o], the Kd was 245 ± 63.9 µM.
